# “Also recorded” adds a separate entry of the source.
# Tests used:
# cryoinjured TA muscle [1] = assay: Muscle regeneration after cryoinjury: regenerative index, myogenic proteins, myofiber diameter, grip strength after bolus injection; assay type: in vivo, mice; conditions: for regenerative index (fraction of nuclei in embryonic MHC-positive myofibers): single bolus, combinations: prostaglandin at day 0, rosiglitazone at day 1, relative to DMSO vehicle; for grip strength: 14 days post-injury, 6-week old mice, prostaglandin at 0 h, rosiglitazone at 24 h post-injury; for hypertrophic growth (myofiber cross-sectional Feret diameters): prostaglandin at day 0, rosiglitazone at day 1
# From the text: (§1) Some tissues were flash frozen for cryosectioning.
# [2] = tested on: muscle stem cells and myoblasts in gastrocnemius, quadriceps and TA muscle; assay: Stem cell and myoblast activation in skeletal muscles without injury, immunofluorescence 2 days after single bolus; assay type: in vivo, mice; conditions: for fraction of proliferative muscle stem cells (Pax7-positive Ki67-positive cells) / total pool of muscle stem cells (Pax7-positive cells) / total pool of proliferative cells (Ki67-positive cells): without injury
# From the text: as §1
# cryoinjured TA muscle [3] = assay: PGI2 bolus in cryoinjured TA muscle: cAMP, PPARs, H3K9ac and myogenic markers; assay type: in vivo, mice
# [4] = tested on: pure primary human myoblasts; assay: Pure primary human myoblasts treated with PGI2-related drugs (Western blot, qRT-PCR); assay type: cell-based; conditions: for H3K9ac and MyoD protein (Western blot) / PPARG protein levels (Western blot): pure primary human myoblasts, relative to DMSO
# primary human myoblasts = assay: Proliferation of primary human myoblasts under PGI2 treatment; assay type: cell-based
# [5] = tested on: fibrosis in TA muscle, liver, skin and heart of 2-year old mice; assay: Aging-induced fibrosis and fibrotic precursors in 2-year old mice after daily injection; assay type: in vivo; conditions: for relative changes in the % fibrotic area (Masson trichrome staining) / relative changes in the percentage fraction of fibrotic precursors (PGDFRA-positive and Ki67-positive): 7 days post-injection, 2-year old mice; for relative changes in the % fibrotic area (Masson trichrome staining) / relative changes in the percentage fraction of fibrotic precursors (PGDFRA-positive and Ki67-positive) / aging-induced fibrosis (fibrotic area) in multiple non-skeletal muscle tissues: daily injection
# From the text: as §1
# [6] = tested on: Ki67-positive proliferative progenitor cells in liver, heart, skin, hair follicles; assay: Ki67+ progenitor cells in non-skeletal muscle tissues without injury, 2 days after intra-peritoneal treprostinil; assay type: in vivo, mice
# From the text: as §1
# [7] = gastrocnemius muscle, 2 days after intramuscular single bolus, PPARD drugs
# [8] = TA muscle 1-2 days post-cryoinjury
# [9] = injured TA muscle, single bolus
# [10] = differentiating myoblasts (24 h post-differentiation)
# [11] = TA muscle, 2 days after intramuscular single bolus, with or without HGF
# [12] = TA muscle, 2 days after intramuscular single bolus
# [13] = liver, skin and heart, 2-year-old mice
# [14] = gastrocnemius muscle, 2 days after intraperitoneal single bolus, with or without fenofibrate or WY-14643
# [15] = gastrocnemius muscle, 2 days after intra-peritoneal single bolus
# [16] = quadriceps muscles, 2 days after intra-peritoneal single bolus
compound,measurement,setting,value
O=C(NCCS(=O)(=O)c1ccc(C(F)(F)F)cn1)c1ccc(Cl)cc1 [GSK3787],regenerative index (fraction of nuclei in embryonic MHC-positive myofibers),cryoinjured TA muscle [1]; TA muscle 6.5 days post-injury,not
same,percentage fraction of proliferative muscle stem cells (Pax7-positive Ki67-positive cells),[2]; [7],no effect
same,percentage fraction of proliferative myoblasts (MyoD-positive Ki67-positive cells),[2]; [7],slightly increased
Cc1cc(SCc2sc(-c3ccc(C(F)(F)F)c(F)c3)nc2C)ccc1OCC(=O)O [GW0742],regenerative index (fraction of nuclei in embryonic MHC-positive myofibers),cryoinjured TA muscle [1]; TA muscle 6.5 days post-injury,significantly decrease muscle regeneration
same,percentage fraction of proliferative muscle stem cells (Pax7-positive Ki67-positive cells),[2]; [7],surprisingly decreased
same,percentage fraction of proliferative myoblasts (MyoD-positive Ki67-positive cells),[2]; [7],no effect
"CCCCC[C@H](O)/C=C/[C@H]1C(=O)C[C@H](O)[C@@H]1C/C=C\CCCC(=O)O [PGD2, prostaglandin D2]",regenerative index (fraction of nuclei in embryonic MHC-positive myofibers),cryoinjured TA muscle [1]; TA muscle 6.5 days post-injury,slightly but significantly increase muscle regeneration; also recorded: slightly increased regeneration
CCCCC[C@H](O)/C=C/[C@@H]1[C@@H](CCCCCCC(=O)O)[C@@H](O)C[C@H]1O [PGF1a],regenerative index (fraction of nuclei in embryonic MHC-positive myofibers),cryoinjured TA muscle [1]; TA muscle 6.5 days post-injury,significantly decrease muscle regeneration; also recorded: slightly decreased regeneration
CCCCC[C@@H](/C=C/[C@H]1[C@H](CCCCCCC(=O)O)[C@H]2C[C@@H]1OO2)OO [PGG1],regenerative index (fraction of nuclei in embryonic MHC-positive myofibers),cryoinjured TA muscle [1]; TA muscle 6.5 days post-injury,no significant effect; also recorded: did not cause significant changes
"CCCCC[C@H](O)/C=C/[C@@H]1[C@H]2C/C(=C/CCCC(=O)O)O[C@H]2C[C@H]1O [PGI2, prostacyclin]",grip strength,cryoinjured TA muscle [1],partially restore grip strength
same,hypertrophic growth (myofiber cross-sectional Feret diameters),cryoinjured TA muscle [1]; TA muscle 6.5 days post-injury,increase hypertrophic growth
same,regenerative index (fraction of nuclei in embryonic MHC-positive myofibers),cryoinjured TA muscle [1]; TA muscle 6.5 days post-injury,significantly increase muscle regeneration; also recorded: significantly promoted muscle regeneration
same,optimal PGI2 concentration for muscle regeneration (regenerative index saturated and peaked),"cryoinjured TA muscle [1]; titration of single bolus, TA muscle 6.5 days post-injury",6.5 to 13 mM
same,H3K9ac levels (Western blot),cryoinjured TA muscle [3]; [8],increased protein acetylation and especially histone acetylation
same,PPARA protein (Western blot),cryoinjured TA muscle [3]; [8],suppresses the increase in PPARA; also recorded: suppressed PPARA protein
same,PPARD protein (Western blot),cryoinjured TA muscle [3]; [8],exerts little effect on PPARD
same,PPARG protein (Western blot),cryoinjured TA muscle [3]; [8],accelerates the increase in PPARG; also recorded: increased PPARG protein
same,percentage fraction of PPARG-positive cells (immunofluorescence),cryoinjured TA muscle [3]; TA muscle 1-2 days post-freeze injury,significantly increase PPARG-positive cells
same,"abundance of cyclic adenosine monophosphate (cAMP), MALDI-MSI",cryoinjured TA muscle [3]; TA muscle 6 days after single bolus,significantly decreased
same,"committed myoblasts (MyoG-positive Ki67-positive cells, immunofluorescence)","cryoinjured TA muscle [3]; TA muscle over 6 days post-injury (days 2-4), single bolus at 0 h",significantly increase committed myoblasts; also recorded: significantly increased
same,PPARA and PPARD mRNA expression (qRT-PCR),cryoinjured TA muscle [3]; [9],not PPARA nor PPARD
same,PPARG mRNA expression (qRT-PCR),cryoinjured TA muscle [3]; [9],significantly increase PPARG mRNA expression
same,"Pax7, MyoD, MyoG, Myh3 mRNA expression (qRT-PCR)",cryoinjured TA muscle [3]; [9],significantly increased
same,"PPARA, PPARD, PPARG, H3K9ac, PAX7, MyoD, MyoG and Myh3 protein expression (Western blot)","cryoinjured TA muscle [3]; non-injured and injured region of TA muscle, 6 days post-cryoinjury",can increase; also recorded: significantly increased all myogenesis markers
same,mRNA markers of myoblasts including MyoD1 and Pax3,[4]; [10],increased
same,"mRNA markers of myogenic differentiation including Myog, Myhc, Myh2, Myh3, Myh7, Myh8, Acta1",[4]; [10],sufficient to block committed myocytes from undergoing terminal differentiation; also recorded: decreased
same,"mRNA markers of myogenic differentiation including Myhc, Myh3, Myh8, and Acta1",[4]; proliferative myoblasts (24 h pre-differentiation),sufficient to promote proliferative myoblasts to undergo differentiation; also recorded: increased
same,H3K9ac and MyoD protein (Western blot),[4],increases; also recorded: followed the same pattern of regulation as PPARG
same,PPARG protein levels (Western blot),[4],increases PPARG protein; also recorded: stabilize and/or upregulate
same,proliferation,primary human myoblasts; early passage primary human myoblasts (passage 12),significantly increased proliferation; also recorded: significantly increase the proliferation rate
same,proliferation,primary human myoblasts; late passage primary human myoblasts (passage 18),significantly increased proliferation; also recorded: significantly increase the proliferation rate
same,percentage fraction of proliferative muscle stem cells (Pax7-positive Ki67-positive cells),[2]; [11],significantly increased
same,percentage fraction of proliferative myoblasts (MyoD-positive Ki67-positive cells),[2]; [11],significantly decreased
same,fraction of proliferative muscle stem cells (Pax7-positive Ki67-positive cells),[2]; [12],significantly increased
same,relative changes in the % fibrotic area (Masson trichrome staining),[5]; TA muscle,partially reverse the aged muscle fibrosis; also recorded: significant reversal of aging-induced fibrosis
same,relative changes in the percentage fraction of fibrotic precursors (PGDFRA-positive and Ki67-positive),[5]; TA muscle,partially suppress the aged muscle fibrotic precursors
same,relative changes in the % fibrotic area (Masson trichrome staining),[5]; heart tissue,partially reverse the aged cardiac fibrosis
same,relative changes in the percentage fraction of fibrotic precursors (PGDFRA-positive and Ki67-positive),[5]; heart tissue,partially suppress the aged cardiac fibrotic precursors
same,relative changes in the % fibrotic area (Masson trichrome staining),[5]; liver tissue,partially reverse the aged liver fibrosis
same,relative changes in the percentage fraction of fibrotic precursors (PGDFRA-positive and Ki67-positive),[5]; liver tissue,partially suppress the aged liver fibrotic precursors
same,aging-induced fibrosis (fibrotic area) in multiple non-skeletal muscle tissues,[5]; [13],significant reversal of aging-induced fibrosis
same,relative changes in the % fibrotic area (Masson trichrome staining),[5]; skin tissue,partially reverse the aged skin fibrosis
same,relative changes in the percentage fraction of fibrotic precursors (PGDFRA-positive and Ki67-positive),[5]; skin tissue,partially suppress the aged skin fibrotic precursors
CC(C)OC(=O)C(C)(C)Oc1ccc(C(=O)c2ccc(Cl)cc2)cc1 [fenofibrate],percentage fraction of myoblasts (MyoD-positive cells),[2]; [14],no effect
same,percentage fraction of proliferative myoblasts (MyoD-positive Ki67-positive cells),[2]; [14],no effect
CCCCC[C@H](O)CC[C@@H]1[C@H]2Cc3cccc(OCC(=O)O)c3C[C@H]2C[C@H]1O [treprostinil],grip strength,cryoinjured TA muscle [1],partially restore grip strength
same,"Pax7, MyoD, MyoG and Myh3 protein expression (Western blot densitometry)","cryoinjured TA muscle [1]; TA muscle 6 days post-cryoinjury, treprostinil at day 0, rosiglitazone at day 1 in the combination",significantly increase; also recorded: could also increase
same,hypertrophic growth (myofiber cross-sectional Feret diameters),cryoinjured TA muscle [1]; TA muscle 6.5 days post-injury,increase hypertrophic growth
same,regenerative index (fraction of nuclei in embryonic MHC-positive myofibers),cryoinjured TA muscle [1]; TA muscle 6.5 days post-injury,significantly increase muscle regeneration
same,H3K9ac and MyoD protein (Western blot),[4],followed the same pattern of regulation as PPARG
same,PPARG protein levels (Western blot),[4],stabilize and/or upregulate
same,percentage fraction of proliferative muscle stem cells (Pax7-positive Ki67-positive cells),[2]; [11],significantly increased; also recorded: could increase
same,percentage fraction of proliferative myoblasts (MyoD-positive Ki67-positive cells),[2]; [11],slightly increased; also recorded: could increase
same,fraction of proliferative muscle stem cells (Pax7-positive Ki67-positive cells),[2]; [12],significantly increased
same,fraction of proliferative muscle stem cells (Pax7-positive Ki67-positive cells),[2]; [15],significantly increased
same,total pool of muscle stem cells (Pax7-positive cells),[2]; [15],significantly increased
same,total pool of proliferative cells (Ki67-positive cells),[2]; [15],significantly increased
same,percentage fraction of proliferative muscle stem cells (Pax7-positive Ki67-positive cells),[2]; [7],significantly increased
same,percentage fraction of proliferative myoblasts (MyoD-positive Ki67-positive cells),[2]; [7],slightly increased
same,percentage fraction of myoblasts (MyoD-positive cells),[2]; [14],significantly increased
same,percentage fraction of proliferative myoblasts (MyoD-positive Ki67-positive cells),[2]; [14],significantly increased
same,fraction of proliferative muscle stem cells (Pax7-positive Ki67-positive cells),[2]; [16],significantly increased
same,total pool of muscle stem cells (Pax7-positive cells),[2]; [16],significantly increased
same,total pool of proliferative cells (Ki67-positive cells),[2]; [16],significantly increased
same,total pool of proliferative progenitor cells (Ki67-positive cells),[6]; endoderm-derived liver tissue,significantly increased
same,total pool of proliferative progenitor cells (Ki67-positive cells),"[6]; endoderm-derived liver tissue, listed as Treprostinil",increase the total pool of Ki67+ progenitor cells
same,total pool of proliferative progenitor cells (Ki67-positive cells),[6]; mesoderm-derived heart and cardiac muscle tissue,significantly increased; also recorded: increase the total pool of Ki67+ progenitor cells
same,total pool of proliferative progenitor cells (Ki67-positive cells),[6]; neuroectoderm-derived skin tissue,significantly increased; also recorded: increase
same,total pool of proliferative progenitor cells (Ki67-positive cells),[6]; skin tissue's telogen hair follicles,significantly increased; also recorded: increase
same,relative changes in the % fibrotic area (Masson trichrome staining),[5]; TA muscle,partially reverse the aged muscle fibrosis; also recorded: significant reversal of aging-induced fibrosis
same,relative changes in the percentage fraction of fibrotic precursors (PGDFRA-positive and Ki67-positive),[5]; TA muscle,partially suppress the aged muscle fibrotic precursors
same,relative changes in the % fibrotic area (Masson trichrome staining),[5]; heart tissue,partially reverse the aged cardiac fibrosis
same,relative changes in the percentage fraction of fibrotic precursors (PGDFRA-positive and Ki67-positive),[5]; heart tissue,partially suppress the aged cardiac fibrotic precursors
same,relative changes in the % fibrotic area (Masson trichrome staining),[5]; liver tissue,partially reverse the aged liver fibrosis
same,relative changes in the percentage fraction of fibrotic precursors (PGDFRA-positive and Ki67-positive),[5]; liver tissue,partially suppress the aged liver fibrotic precursors
same,PDGFRA+ Ki67+ fibrotic precursor numbers in multiple non-skeletal muscle tissues,[5]; [13],suppress
same,aging-induced fibrosis (fibrotic area) in multiple non-skeletal muscle tissues,[5]; [13],significant reversal of aging-induced fibrosis
same,relative changes in the % fibrotic area (Masson trichrome staining),[5]; skin tissue,partially reverse the aged skin fibrosis
same,relative changes in the percentage fraction of fibrotic precursors (PGDFRA-positive and Ki67-positive),[5]; skin tissue,partially suppress the aged skin fibrotic precursors
HGF: hepatocyte growth factor,percentage fraction of proliferative muscle stem cells (Pax7-positive Ki67-positive cells),[2]; [11],significantly increased; also recorded: could increase
same,percentage fraction of proliferative myoblasts (MyoD-positive Ki67-positive cells),[2]; [11],slightly increased; also recorded: could increase
